{"source": "a melting point compilation (Tetko et al.; mined from patent text by program, amines drawn as free bases though some values may be those of a salt)"}
{"units": {"melting point": "°C"}}
{"smiles": "CC(C(=O)O)c1ccc2c(c1)C(=O)Cc1ccc(Cl)cc1S2", "note": "(stereo not given)", "melting point": "142 to 143"}
{"smiles": "CCC(C)NC(=O)n1c(=O)nc(N2CCOCC2)n1C", "note": "(stereo not given)", "melting point": 147}
{"smiles": "CSc1ccc(CC2CCc3cc(OCCn4ccnc4)ccc3C2=O)cc1", "note": "(stereo not given)", "melting point": "114 to 117"}
{"smiles": "c1ccc2c(c1)Cn1cccc1CN2", "melting point": "145 to 148"}
{"smiles": "Cc1c(OCc2ccccc2)ccc2cncn12", "melting point": "52 to 54"}
{"smiles": "NC(=O)C=Cc1cccc(Cl)c1", "melting point": 180}
{"smiles": "O=C(CC1CCCCCC1=O)c1ccc([N+](=O)[O-])cc1", "note": "(stereo not given)", "melting point": "79 to 84"}
{"smiles": "CC1=C(C(=O)OCC[Si](C)(C)C)C(c2cccc([N+](=O)[O-])c2)C(C(=O)OCC[Si](C)(C)C)=C(C)N1", "melting point": 120}
{"smiles": "CCOC(=O)c1cnn2c1nc(N1CCCCC1)c1cnc3c(cnn3CC)c12", "melting point": "183 to 184"}
{"smiles": "CC(C)(C)OC(=O)N1CCC[C@H]1CNc1ccc2nccn2n1", "melting point": "161 to 162"}
{"smiles": "O=C1CCC(n2nc(-c3c(-c4ccccc4)nn4ccccc34)ccc2=O)CC1", "melting point": "138 to 140"}
{"smiles": "COc1ccc(Cn2c(=O)cc(-c3nccn3C)c3cnc(SC)nc32)cc1Cl", "melting point": "218 to 220"}
{"smiles": "CC1CCC2(OC1)OC1CC3C4CCC5CC(O)CCC5(C)C4C=CC3(C)C1C2C", "note": "(stereo not given)", "melting point": "179 to 181"}
{"smiles": "Cc1nc(-n2cc(-c3ccc(F)cc3)nn2)sc1C(=O)NCc1ccccc1", "melting point": "203 to 205"}
{"smiles": "COC(=O)c1ccc(OCCCN2CCC(C(O)(c3ccc(F)cc3)c3ccc(F)cc3)CC2)c(OC)c1", "melting point": "131 to 132"}
{"smiles": "COc1ccc2c(c1)C(=O)CC21CNC(=O)C1", "note": "(stereo not given)", "melting point": "179 to 180"}
{"smiles": "O=C(Nc1ccccc1)c1cc2ccccc2s1", "melting point": 188}
{"smiles": "Cc1nc(C)c(Cl)c(NCc2nccc(SCCCSCC3CN(C)C(=O)O3)c2C)n1", "note": "(stereo not given)", "melting point": 121}
{"smiles": "CCOC(=O)c1cc(C)c(OCCCc2cc(C)no2)c(C)c1", "melting point": "49 to 50"}
{"smiles": "CS(=O)c1ccc(CSc2nc(-c3ccc(F)cc3)c(-c3ccnc(Cl)c3)[nH]2)cc1", "note": "(stereo not given)", "melting point": 179}
{"smiles": "COc1cc(C(=O)NCC2c3ccccc3CCN2CCO)cc(OC)c1OC", "note": "(stereo not given)", "melting point": "138 to 140"}
{"smiles": "Fc1ccc(Cn2c(NC3CCN(CCNc4ncccn4)CC3)nc3cncnc32)cc1", "melting point": 164}
{"smiles": "O=C(NC1CCCCC1)c1c(O)c2cccnc2n(Cc2ccccc2)c1=O", "melting point": 143}
{"smiles": "CCOC(=O)c1cn(C2CC2)c2cc(Br)c(F)c(C)c2c1=O", "melting point": "195 to 197"}
{"smiles": "COc1ccc(C(=O)c2ccccc2Cl)c(Cl)c1Cl", "melting point": "117 to 120"}
{"smiles": "O=C(NCc1ccn(-c2cc3nc(C(=O)O)c(=O)[nH]c3cc2C(F)(F)F)c1)Nc1ccccc1", "melting point": "> 300"}
{"smiles": "Cc1oc(-c2ccc(C(F)(F)F)cc2)nc1COc1cccc(C=CC(C)n2oc(=O)[nH]c2=O)c1", "note": "(stereo not given)", "melting point": "104 to 105"}
{"smiles": "COc1ccc(OCc2ccccn2)c(/C=C/c2cc(/C=C/c3ccc4cc[nH]c4c3)n[nH]2)c1", "melting point": "119 to 124"}
{"smiles": "Cc1c(-c2ccc(Cl)cc2)c2cc(OC(C)(C)C(=O)O)ccc2n1C", "melting point": "148 to 149"}
{"smiles": "Cc1cc2n[nH]c(=O)n2nc1-c1cccc([N+](=O)[O-])c1", "melting point": "> 300"}
{"smiles": "CCOC(=O)CCCc1cn(C(c2ccccc2)(c2ccccc2)c2ccccc2)cn1", "melting point": 134}
{"smiles": "CCOC(=O)c1ccc(CCN(C)CCCC(C#N)(c2ccc(OC)c(OC)c2)C(C)C)cc1", "note": "(stereo not given)", "melting point": "111 to 112"}
{"smiles": "CCc1ccc(N=c2sc3ncccc3c(=O)n2CC)cc1", "melting point": "148 to 149"}
{"smiles": "NS(=O)(=O)c1ccc(-c2oc3ccc(F)cc3c(=S)c2-c2ccc(F)cc2)cc1", "melting point": "224 to 225"}
{"smiles": "N#Cc1cnn2c1N(C(=O)CN1CCN(C(=O)Nc3cccc(C(F)(F)F)c3)CC1)CC=C2c1cccc(C(F)(F)F)c1", "melting point": "147 to 149"}
{"smiles": "Oc1cc(Oc2ncc(C(F)(F)F)cc2Cl)ccc1Br", "melting point": "124 to 127"}
{"smiles": "Cn1nc2nnsc2c1Br", "melting point": "99 to 101"}
{"smiles": "Cc1cc(C)c(NC(=O)CCCCCl)c(Cl)c1", "melting point": "80.6 to 82.9"}
{"smiles": "CSc1ncc2c(=O)[nH]c(-c3ccccc3OCC(C)C)nc2n1", "melting point": "185 to 186"}
{"smiles": "O=C(O)CCCc1ccc(F)cc1F", "melting point": "45 to 47"}
{"smiles": "COc1ccc(-c2c(O)c3ccc(Cl)cc3[nH]c2=O)cc1", "melting point": "> 350"}
{"smiles": "CN(Cc1ccc2c(Br)c(OCC(=O)O)ccc2c1)C(=O)c1oc2ccccc2c1CCc1ccccc1", "melting point": "119 to 122"}
{"smiles": "O=C(O)C(=O)CC(=O)c1cn(Cc2ccccc2)c2ccccc2c1=O", "melting point": "141 to 142"}
{"smiles": "COc1cccc(-c2ccc3c(C(=O)Nc4cccnc4)c(OC)ccc3c2)c1", "melting point": 154}
{"smiles": "C=CC(=O)Nc1cccc2c(=O)c(C)c(-c3ccccc3)oc12", "melting point": "229 to 230"}
{"smiles": "CCOC(=O)C(CCc1ccccc1)CC1(C(=O)O)CCCC1", "note": "(stereo not given)", "melting point": "68 to 69"}
{"smiles": "O=C1OCCN1CCO", "melting point": "32 to 33"}
{"smiles": "O=C(c1cccnc1)N1N=CCC1c1ccco1", "note": "(stereo not given)", "melting point": "91 to 93"}
{"smiles": "COc1cc2nc(N3CCN(C(=O)C4CC=CC4)CC3)nc(N)c2cc1OC", "melting point": "216 to 218"}
{"smiles": "COc1ccc2ccc(S(=O)(=O)Cl)cc2c1", "melting point": "81 to 85"}
{"smiles": "O=C(COc1ccccc1)NCCO[N+](=O)[O-]", "melting point": "61 to 62"}
{"smiles": "Cc1ccccc1-n1c(-c2sc(NC(=O)c3ccccc3)nc2-c2ccccc2)nc2ccccc2c1=O", "melting point": "> 275"}
{"smiles": "COc1cc(C)nc(NC(=O)NS(=O)(=O)c2ccccc2-c2ccccc2)n1", "melting point": "199 to 202"}
{"smiles": "CN(C)c1ccc(Nc2ccccc2)cc1", "melting point": "163 to 166"}
{"smiles": "CCCn1nc(C(F)(F)CCC)nc1Cc1ccc(-c2ccccc2-c2nnn[nH]2)nc1", "melting point": "140 to 141"}
{"smiles": "CCC(=O)c1ccc(OC)c(Cl)c1Cl", "melting point": "51 to 54"}
{"smiles": "O=[N+]([O-])c1ccc(Oc2ccc(C(F)(F)F)cn2)cc1NCP(=O)(O)O", "melting point": 94}
{"smiles": "Cc1cc(-c2nnc3cc(C(C)(C)C)c(OCc4cn(C)nn4)nn23)no1", "melting point": "219 to 221"}
{"smiles": "CCC1(O)CCC2C3CCC4CC(=O)CC(C)C4(C)C3CCC21C", "note": "(stereo not given)", "melting point": 152}
{"smiles": "COc1cccc2cc(SCCC(=O)O)n(C)c12", "melting point": "120 to 122"}
{"smiles": "O=C(c1cncnc1)c1ccc(Cl)cc1Cl", "melting point": "75 to 78"}
{"smiles": "Cc1ccc(C(=O)Nc2c(NC(=O)CN3CCCC3)ccc3c2C(=O)c2ccccc2C3=O)cc1", "melting point": "193 to 194"}
{"smiles": "CCOC(=O)C(C)(C)NC(=O)c1ccc(S(=O)(=O)n2c(=O)n(C3CCCCC3)c3cc(OCC)ccc32)c(OC)c1", "melting point": 202}
{"smiles": "CC(=O)NC[C@H]1CN(c2ccc(N3CCS(=O)(=O)CC3)c(F)c2)C(=O)O1", "melting point": "202 to 203"}
{"smiles": "O=C(ON1C(=O)CCC1=O)c1ccccc1", "melting point": 178}
{"smiles": "CCCC1(O)CSC(=S)N1c1cccc(C)n1", "note": "(stereo not given)", "melting point": 70}
{"smiles": "CC(=O)N[C@@H]1[C@@H](CCO)CC(C(=O)O)=C[C@H]1OC(C)C", "melting point": "114 to 115"}
{"smiles": "CNC(=O)c1ccc(F)c2c1CC(N(CCCc1c[nH]c3ccc(F)cc13)C1CCC1)CO2", "note": "(stereo not given)", "melting point": 132}
{"smiles": "COC(=O)COc1c(C)cc(SCc2ccc(-c3ccc(C(F)(F)F)cn3)cc2)c2c1CCCO2", "melting point": "156 to 157"}
{"smiles": "FC(F)(F)c1ccc2c(c1)nc(/C=C/c1ccccc1)n2-c1ccccn1", "melting point": "144 to 145"}
{"smiles": "O=C(Nc1cccc(S(=O)(=O)NCc2cccnc2)c1)c1cnn2c(C(F)F)cc(-c3ccc(C(F)(F)F)cc3)nc12", "melting point": 256}
{"smiles": "CC(C)(COc1ccc2nccn2n1)CS(N)(=O)=O", "melting point": "165 to 167"}
{"smiles": "CC(=O)N1CCC(C(C)(O)c2ccc(Cl)cc2)CC1", "note": "(stereo not given)", "melting point": "178 to 180"}
{"smiles": "N#Cc1ccc2[nH]c3ccc(C#N)cc3c2c1", "melting point": 360}
{"smiles": "COc1ccccc1CNc1ccc2cc(Nc3nc4cc(C)ccc4o3)ccc2n1", "melting point": 220}
{"smiles": "OC12N=C(c3ccccc3)SC1(Br)Cc1cc(Cl)ccc12", "note": "(stereo not given)", "melting point": 148}
{"smiles": "COc1ccc(Oc2c(SCc3ccccc3)cc(C(=O)O)cc2S(N)(=O)=O)cc1", "melting point": "215 to 216"}
{"smiles": "Cc1ccsc1C(Cc1ccccc1N)N(C)C=O", "note": "(stereo not given)", "melting point": "111 to 112"}
{"smiles": "C[C@@H]1CN(c2nccc(Oc3ccc(NC(=O)c4cc(F)cc(N5CCOCC5)c4)c4ccccc34)n2)C[C@H](C)O1", "melting point": "118 to 120"}
{"smiles": "CN1CCN(CC2CCCCN2CC(=O)N2c3ccccc3NC(=O)c3ccccc32)CC1", "note": "(stereo not given)", "melting point": "200 to 202"}
{"smiles": "CCCCOc1ccc(C[C@H](NC(=O)[C@H]2CC[C@H](C(C)C)CC2)C(=O)O)cc1", "melting point": "120 to 121"}
{"smiles": "CNc1nc(Nc2ccc(Cl)c(Cl)c2)ncc1NC(=O)Oc1ccccc1", "melting point": 306}
{"smiles": "COC(=O)CC1CCN(CCC=C(c2ccccc2)c2ccccc2)C1", "note": "(stereo not given)", "melting point": "95.5 to 97.5"}
{"smiles": "Cc1cccc(-c2nc(C(C)C)[nH]c2-c2cccc(-c3cnn(C)c3)c2)n1", "melting point": "84 to 86"}
{"smiles": "Cc1nc(N)c2nc(C)n(NC3CCCCC3)c2c1C", "melting point": "242 to 244"}
{"smiles": "CSc1cc(CBr)cc(SC)c1", "melting point": "76 to 77"}
{"smiles": "COc1ccc(NC(=O)c2ccccc2)cc1Nc1ccccc1", "melting point": "209 to 210"}
{"smiles": "COC(=O)C(C)(C)Oc1ccc(C(C)=O)cc1", "melting point": "62 to 63"}
{"smiles": "CCCN(CCC)C(=O)Nc1nn(Cc2ccccc2)cc1C(=O)OCC", "melting point": "114 to 115"}
{"smiles": "CC1(C)C(=O)Nc2cc3[nH]c(-c4ccc(O)cc4)nc3cc21", "melting point": 240}
{"smiles": "COC1(NC(=O)c2ccccc2)CC1", "melting point": "190 to 191"}
{"smiles": "CC(C)CNc1cccc(-c2ccnc3c(C(=O)c4cccs4)cnn23)c1", "melting point": "186 to 188"}
{"smiles": "FC(F)c1cc(Cl)nc2c1cnn2C1CCCCO1", "note": "(stereo not given)", "melting point": 93}
{"smiles": "CC(=O)Nc1ccccc1S(=O)(=O)NCCCCN1CCN(c2ncccn2)CC1", "melting point": 99}
{"smiles": "Cn1c2c(c3ccccc31)CC(OC(=O)c1ccccc1)CC2", "note": "(stereo not given)", "melting point": "93 to 96"}
{"smiles": "CN1CCN(C(=O)OC2C3=C(SCCS3)C(=O)N2c2ccc3cccnc3n2)CC1", "note": "(stereo not given)", "melting point": 255}
{"smiles": "N#Cc1cccc(-c2nc(-c3ccccn3)no2)c1", "melting point": "148 to 149"}
{"smiles": "O=C1NC(=O)C(Cc2ccc(OCCON=Cc3ccc(-c4ccccc4)nc3)cc2)S1", "note": "(stereo not given)", "melting point": "102 to 104"}
{"smiles": "CCCCOC(=O)n1nc(-c2cccc(Br)c2)ccc1=O", "melting point": "126 to 129"}
{"smiles": "Cc1cc2c(cc1O)OC[C@@H](N1CCC(O)(c3ccc(F)cc3)CC1)[C@H]2O", "note": "(relative stereo)", "melting point": 174}
